PMC9572541, “Design, Synthesis and Biological Evaluation of Novel and Potent Protein Arginine Methyltransferases 5 Inhibitors for Cancer Therapy” (Molecules, 2022)
Read-outs that look alike come from different tables or passages of the source.

Experiments:
[1] = molecular target: T1, PRMT5 (Homo sapiens, UniProt O14744); experiment: PRMT5 enzymatic activity inhibition assay (radioactive methylation, 3H-SAM to H4R3 peptide); assay type: biochemical
T1 construct: The final concentrations of PRMT5 enzyme: 2.5 nm/L
T1 sequence (O14744 whole entry): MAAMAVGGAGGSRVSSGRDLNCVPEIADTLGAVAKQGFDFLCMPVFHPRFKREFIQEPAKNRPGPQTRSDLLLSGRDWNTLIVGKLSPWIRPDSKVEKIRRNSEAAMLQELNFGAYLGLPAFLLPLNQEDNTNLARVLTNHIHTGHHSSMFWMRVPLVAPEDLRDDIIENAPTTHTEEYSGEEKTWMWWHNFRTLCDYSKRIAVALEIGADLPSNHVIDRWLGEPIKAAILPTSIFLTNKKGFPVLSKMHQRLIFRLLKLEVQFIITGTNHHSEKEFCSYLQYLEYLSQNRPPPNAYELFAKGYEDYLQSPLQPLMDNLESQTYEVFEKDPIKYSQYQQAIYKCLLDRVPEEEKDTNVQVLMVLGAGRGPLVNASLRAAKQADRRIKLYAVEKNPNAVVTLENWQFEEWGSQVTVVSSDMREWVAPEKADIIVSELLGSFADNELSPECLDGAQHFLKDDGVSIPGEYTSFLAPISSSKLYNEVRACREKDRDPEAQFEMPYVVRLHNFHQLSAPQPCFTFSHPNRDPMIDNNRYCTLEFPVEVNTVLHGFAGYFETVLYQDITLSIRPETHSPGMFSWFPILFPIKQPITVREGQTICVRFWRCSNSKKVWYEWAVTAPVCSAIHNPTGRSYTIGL
T1 sequence (Q9BQA1 whole entry partner): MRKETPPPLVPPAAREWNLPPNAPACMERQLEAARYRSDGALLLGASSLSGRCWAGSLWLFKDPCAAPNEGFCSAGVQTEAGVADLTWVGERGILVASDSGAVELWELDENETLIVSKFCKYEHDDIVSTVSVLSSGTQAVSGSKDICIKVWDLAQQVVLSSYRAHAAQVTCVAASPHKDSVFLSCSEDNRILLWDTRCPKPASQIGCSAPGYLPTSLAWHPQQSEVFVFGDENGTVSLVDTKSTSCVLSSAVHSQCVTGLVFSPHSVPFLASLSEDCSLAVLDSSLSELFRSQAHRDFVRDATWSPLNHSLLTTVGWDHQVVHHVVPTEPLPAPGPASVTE
Procedure: The PRMT5 enzymatic activity assay was conducted by Chempartner Life science. The final concentrations of PRMT5 enzyme: 2.5 nm/L; ^3H-SAM: 0.3 μM/L; histone peptide (H4R3S1ac): 0.3 μM/L. The protocol of radioactive methylation assay was as follows: (1) Prepare 1× assay buffer (modified Tris Buffer). (2) Transfer compounds to assay plate using Echo in 100% DMSO. DMSO’s final fraction is 1%. (3) Prepare enzyme and ^3H-SAM Mix solution in 1× assay buffer. (4) Prepare substrate (peptide sequence Ac-[…]-K(Biotin)) solution in 1× assay buffer. (5) Transfer 15 μL of enzyme and ^3H-SAM solution to assay plate. (6) Incubate at room temperature for 60 min. (7) Add 10 μL of substrate solution to each well to start the reaction, and for low control transfer 10 μL of 1× assay buffer. (8) Incubate at room temperature for 120 min. (9) Add cold SAM in 1× assay buffer to make the stop mix. (10) Stop reaction with addition of 5 µL per well of stop solution. (11) Transfer 25 µL of volume per well to Flash plate from assay plate. (12) Incubate for 1 h minimum at room temperature.
(13) Read plate on Micro beta. (14) Data process—get the data in Excel to obtain inhibition values using Equation (1).Inhibitory rate% = (Max-Signal)/ (Max-Min) × 100(1)
Fit the data in XL-Fit to obtain IC50 values using Equation (2): Y = Bottom + (Top-Bottom)/(1 + (IC50/X) […]) Y is% inhibition and X is compound concentration(2)

[2] = system: MV-4-11 cells; experiment: Anti-proliferation CellTiter-Glo assay, MV-4-11; assay type: cell-based; details: Homo sapiens, MV4-11, 12th day
Source text: (§1) MV-4-11 and MDA-MB-468 cell lines were used to evaluate the anti-proliferative activities of the selected target compounds (CellTiter-Glo assay), and AML-12 hepatocytes were selected to evaluate the toxicity of the compounds.
(§2) MV-4-11 and MDA-MB-468 cell line were derived from Cell Resources Center of Shanghai Academy of life sciences (Shanghai, China). AML-12 cell line was brough from Nanjing Lixing Biotechnology Co. Ltd. (Nanjing, China). MDA-MB-468 cell line was maintained in Dulbecco’s Modified Eagle Medium (DMEM, KeyGEN Bio) that contained 10% FBS (Biochanel, China), MV-4-11 cell line was maintained in Iscove’s Modified Dulbecco Medium containing; 10% FBS (Biochannel, China), AML-12 cell line was maintained in DMEM/F-12 (1:1) (KeyGEN, China; 1% ITS Liquid Media Supplement (Sigma, America), dexamethasone 40 ng/mL (Sigma, USA) and 10% FBS (Biochannel, China). All cells were grown in a humidified incubator containing 5% carbon dioxide at 37 ℃. All compounds were dispersed in dimethyl sulfoxide (Sigma), the concentration of the reserve solution was 10 mmol/L and the solution was stored in a refrigerator at −20 ℃. SDMA (# 13222S), β- Tubulin (#2146S) and horseradish peroxidase (HRP)-linked secondary antibodies anti-rabbit or anti-mouse IgG were purchased from Cell Signaling Technology (CST), and the anti-PRMT5 (ab109451) antibody was purchased from ABCAM.
(§3) The antiproliferative activities of compounds in vitro were measured by CellTiter-Glo (CTG) assay (Promega, America). In linear/log-phase growth, cultured MV-4-11 cells were split to with seeding density of 2 × 10^5 cells/mL in 1–20 mL of media, depending on the yield required at the end of the growth period. At the conclusion of each treatment period, cells were harvested by centrifugation (4 min, 1000 rpm), and cell pellets were rinsed twice with PBS before being research further processing. Afterwards, cells were plated in 96-well plates with a density of 500 cells/well in […] media. After six hours incubation, compounds treatment was performed. Half of the culture medium was moved and re-plated with fresh media with fresh compound after 6 days. On the 12th day, Cell Titer-Glo Luminescent Cell Viability assays (Promega, USA) were used to determine the viable cell number, and luminescence was recorded using the Envision Multilabel Plate Readers (PerkinElmer). The concentration dependence curves were determined at each time point using GraphPad Prism 8.0 software.

[3] = system: MDA-MB-468 cells; experiment: Anti-proliferation CellTiter-Glo assay, MDA-MB-468; assay type: cell-based; details: Homo sapiens
Source text: as §1, §2, §3

[4] = Pharmacokinetic study in ICR mice; assay type: in vivo, mouse; details: for MRT last: read-out: MRT0-t; for MRT inf: read-out: MRT0-∞
Procedure: The pharmacokinetic properties were evaluated by PRECEDO. China. SPF ICR mice (18–20 g, 6–8 weeks, n = 3 per group) were used to carried out pharmacokinetics determinations. […] Colleting samples at different times after treatment. Plasma was obtained from the blood samples by centrifugation (6000 rpm for 3 min at 2–8 °C) and stored at −20 °C. The LC-MS/MS (Shimadzu, API 4000) method was used to determine the concentration of each animal at each time point.

[5] = ICR, mouse, plasma, iv, 2 mg/kg, male mice, Table S1, mean ± SD
[6] = ICR, mouse, plasma, oral gavage, 10 mg/kg, male mice, Table S2, mean
[7] = male, ICR, mouse, plasma, iv, 2 mg/kg, ICR mouse, Table 4
[8] = male, ICR, mouse, plasma, iv, 2 mg/kg, male mice, Table S1, mean ± SD
[9] = male, ICR, mouse, plasma, po, 10 mg/kg, ICR mouse, Table 4
[10] = male, ICR, mouse, plasma, po, 10 mg/kg, oral gavage, male mice, Table S2, mean

O=C(NC[C@H](O)CN1CCc2ccccc2C1)c1ccc2c(c1)c1c(n2CC2COC2)CCCC1 [Compound 20, (S)-N-(3-(3,4-dihydroisoquinolin-2(1H)-yl)-2-hydroxypropyl)-9-(oxetan-3-ylmethyl)-2,3,4,9-tetrahydro-1H-carbazole-6-carboxamide]
IC50 [1]: 4.2 ± 1.3 nM | inhibition at 0.1 µM ([1]; 100 nM compound, read-out: Inhibition Rate% @100 nM): 83 ± 12% | GI50 [2]: 4.6 ± 0.9 nM | GI50 [3]: 9.9 ± 6.8 nM | AUC(0-t) [4, 5]: 1030 ± 68.5 ng·h/mL | C0 [4, 5]: 1940 ± 330 ng/mL | Tmax [4, 5]: 4.8 min | half-life [4, 5]: 29.4 ± 13.8 min | MRT last [4, 5]: 26.4 ± 3 min | MRT inf [4, 5]: 0.45 ± 0.05 h | AUC(0-t) [4, 6]: 728 ng·h/mL | Tmax [4, 6]: 15 min | bioavailability [4, 6]: 14.5% | half-life [4, 6]: 364 min | MRT last [4, 6]: 73.2 min | MRT inf [4, 6]: 1.91 h | T1/2 ([4]; iv, 2 mg/kg, ICR mouse, Table 4): 0.49 h | AUC(0-inf) [4, 7]: 1030 ng·h/mL | Cmax [4, 7]: 1690 ng/mL | clearance [4, 7]: 32.4 mL/min/kg | Vd ([4]; male, ICR, mouse, plasma, iv, 2 mg/kg, iv, 2 mg/kg, ICR mouse, Table 4, read-out: Vss): 1.35 L/kg | Vd ([4]; male, ICR, mouse, plasma, iv, 2 mg/kg, iv, 2 mg/kg, male mice, Table S1, mean ± SD, read-out: Vz): 1.35 ± 0.556 L/kg | AUC(0-inf) [4, 8]: 1030 ± 64.8 ng·h/mL | Cmax [4, 8]: 1690 ± 133 ng/mL | clearance [4, 8]: 32.4 mL/min/kg | AUC(0-inf) [4, 9]: 747 ng·h/mL | Cmax [4, 9]: 1270 ng/mL | AUC(0-inf) [4, 10]: 747 ng·h/mL | Cmax [4, 10]: 1270 ng/mL | bioavailability ([4]; male, plasma, po 10 mg/kg vs iv 2 mg/kg, ICR mouse, Table 4): 14.5% | T1/2 ([4]; po, 10 mg/kg, ICR mouse, Table 4): 6.06 h
